Data reported in US20250276994A1, “CAP ANALOG FOR THE 5'-END OF EUKARYOTIC MESSENGER RNAS” (WESTFÄLISCHE WILHELMS-UNIVERSITÄT, priority 2021, published 2025).

Tests used:
[1] = Irradiation of photocleavable 5′-cap analogs, LC-MS (triple quad); format: physicochemical; settings: 30 seconds, 365 nm (3 W)
Description: For determination of mass spectra, HPLC—triple-quadrupole mass spectrometry system was used. The system consists of Agilent 1260 Infinity II with dual λ absorbance detector (G7114A) HPLC part and Agilent Ultivo mass spectrometer with JetStream ion source (type of ESI). Column which was used: Agilent Poroshell 120 EC-C18 (3.0×150/2.7 μm). The polar compounds were tested by LC method (eluent 20 mM NH40Ac buffer (pH=6)/CH3CN, gradient 0-30%, column temperature=20° C.).
Samples of the photocleavable 5′-cap analog of formula (22) were irradiated for 30 seconds with 365 nm (3 W).

HeLa cells = assay: Translation and irradiation in HeLa cells of capped GLuc-mRNA (luminescence); format: cell-based; settings: HeLa; GLuc-mRNA with regular or modified nucleotides; 30 seconds (365 nm)
Description: HeLa cells were transferred to a 96 well plate 20 h prior transfection. 30.000 cells/well were cultivated in growth Media (MEM, 10% FCS, 1% glutamine, 1% Penicillin, 1% Streptomycine, […] non-essential aminoacids). For transfection the growth media was exchanged for MEM-media with 0.6 μL Metafectene® Pro (0.3 μL) and 100 ng mRNA was added per well. 6 h after transfection of the cells the media was exchange by MEM-media, followed by irradiation and another MEM-media exchange. After 24 h post transfection the supernatant in the wells was used for further luminescence measurements. Values of the ApppG capped mRNA represent cap independent translation and were therefore subtracted from the other values.
In cell translation and irradiation in cell culture of mammalian HeLa cells was performed as described above. GLuc mRNA capped with the photocleavable 5′-cap analog of formula (12) (“DMNB”) was used and the commercial non-modified cap analog denoted “m^7GpppG” (Jena Bioscience) was used as a control. HeLa cells were either transfected with the DMNB-m^7GpCH2ppG capped mRNA (irradiated and non-irradiated before transfection) or with the natural capped mRNA (irradiated and non-irradiated before transfection). Irradiation of the mRNA containing the natural cap was performed (5 V, 600 mA) with 365 nm for 30 seconds to evaluate the resulting influence on translational efficiency. DMNB-m^7GpCH2ppG capped mRNA was irradiated in the same way or with 405 nm for 60 seconds. The ApppG capped mRNA, which is not recognized by the translation initiation factor served as negative control, which is substracted from the other samples as it represents background activity. The values were normalized to the non-irradiated m^7GpppG capped sample (100%). The experiment was performed in triplicates.
The luminescence measurement of cell culture media after translation in cells transfected with modified and non-modified GLuc mRNA was repeated using irradiation with 365 nm/405 nm for different periods of time. HeLa cells were either transfected with the GLuc mRNA capped with the photocleavable 5′-cap analog of formula (12) denoted “DMNB-m^7GpCH2ppG capped mRNA” or with the natural m^7GpppG capped mRNA. Cells transfected with the natural capped mRNA were irradiated (5 V, 600 mA) with 365 nm/405 nm for 30 s or 60 s to evaluate the resulting influence on translational efficiency. Cells transfected with DMNB-m^7GpCH2ppG capped mRNA were irradiated in the same way. The ApppG capped mRNA, which is not recognized by the translation initiation factor served as negative control, which is substracted from the other samples as it represents background activity. The values were normalized to the non-irradiated cells with m^7GpppG capped mRNA (100%). The experiment was performed in triplicates.
Luminescence measurement of cell culture media after translation of transfected modified and non-modified GLuc mRNA in cells. HeLa cells were either transfected with the NPOM-m^7GpCH2ppG capped mRNA or with the natural m^7GpppG capped mRNA. Cells transfected with the natural capped mRNA were irradiated (5 V, 600 mA) with 365 nm/405 nm for different periods of time to evaluate the resulting influence on translational efficiency. Cells transfected with NPOM-m^7GpCH2ppG capped mRNA were irradiated in the same way. The ApppG capped mRNA, which is not recognized by the translation initiation factor served as negative control, which is substracted from the other samples as it represents background activity. […]

HEK293T cells = assay: In cell translation assay in HEK293T cells of capped GLuc-mRNA (luminescence); format: cell-based; settings: GLuc-mRNA with regular or modified nucleotides, 30 seconds (365 nm)
From the text: In cell translation assay in HeLa and HEK293T cells with m^7GpppG capped GLuc-mRNA caged with the photocleavable 5′-cap analog of formula (22) (denoted “DMNB m^7GpppG”) with either A) regular nucleotides or B) modified nucleotides m^5C and N^1methyl-pseudouridine. Samples were irradiated for 30 seconds (365 nm). The ApppG capped mRNA, which is not recognized by the translation initiation factor served as negative control, which is substracted from the other samples as it represents background activity. The values were normalized to the non-irradiated sample with m^7GpppG capped mRNA (100%). The experiment was performed in triplicates.

Reticulocyte Lysate = assay: In vitro translation of capped FLuc-mRNA and luminescence measurement; format: biochemical; settings: 30 seconds at 365 nm
Description: In vitro translation was performed using a eukaryotic cell free protein expression kit from Reticulocyte Lysate (Invitrogen). Experiments were performed in 12.5 μL total volume containing 20 ng of the corresponding FLuc-mRNAs, 50 μM L-methionine and 150 mM potassium acetate. Samples were mixed with 8.5 μL of the reticulocyte lysate and incubated for 90 min at 30° C. Afterwards, 2 μL of the respective translation mix were used in subsequent luminescence measurement. The translation efficiency of the reporter mRNAs was assessed in a luciferase assay using Beetle-juice Luciferase Assay Firefly (pjk). Luciferase activity was determined by adding 50 μL freshly prepared substrate solution to the translation mixture. Luminescence was monitored using a Tecan Infinite® m1000pro microplate reader with an acquisition time of 3 s (duration of signal acquisition).
The photocleavable 5′-cap analog of formula (7) was used for in vitro transcription to make FLuc mRNA as described above. This was used for in vitro translation and Luminescence measurement as described above. The commercial non-modified cap analog denoted “m^7GpppG” (Jena Bioscience) was used as positive control. Samples were irradiated for 30 seconds. The ApppG capped mRNA, which is not recognized by the translation initiation factor served as negative control, which is substracted from the other samples as it represents background activity. The experiment was performed in quadruplicates. The FLuc-mRNA capped with the photocleavable 5′-cap analog of formula (7) is denoted “ONB”.
The in vitro translation assay and luminescence measurement was performed as described above using the photocleavable 5′-cap analog of formula (12). The capped mRNA was denoted “DMNB-m^7GpCH2ppG capped FLuc-mRNA”. Samples were irradiated for 30 seconds (365 nm) or 60 seconds (405 nm). The commercial non-modified cap analog denoted “m^7GpppG” (Jena Bioscience) was used as positive control and all other samples were normalized to it. The ApppG capped mRNA, which is not recognized by the translation initiation factor served as negative control, which is substracted from the other samples as it represents background activity. The experiment was performed in triplicates, except *DMNB-m7GpCH2ppG (365 nm) which was a single determination.
The in vitro translation assay in reticulocyte lysate and luminescence measurement was performed as described above using m^7GpppG capped FLuc-mRNA caged with the photocleavable 5′-cap analog of formulas (22) and (25) (denoted “DMNB m^7GpppG” and “NPOM m^7GpppG”). Samples were irradiated for 30 seconds at 365 nm. The ApppG capped mRNA, which is not recognized by the translation initiation factor served as negative control, which was substracted from the other samples as it represents background activity. The values were normalized to the non-irradiated sample with m^7GpppG capped mRNA (100%). The experiment was performed in triplicates.
The in vitro translation assay in reticulocyte lysate and luminescence measurement was performed as described above using m^7GpppG capped FLuc-mRNA with modified nucleotides m^5C and N^1methyl-pseudouridine caged with the photocleavable 5′-cap analog of formulas (22) and (25) (denoted “DMNB m^7GpppG mod” and “NPOM m^7GpppG mod”). Samples were irradiated for 30 seconds at 365 nm. The ApppG capped mRNA, which is not recognized by the translation initiation factor served as negative control, which was substracted from the other samples as it represents background activity. The values were normalized to the non-irradiated sample with m^7GpppG capped mRNA (100%). The experiment was performed in triplicates.

[2] = Stability of the carbamate linkage in water and HeLa cell lysate (HPLC); format: in vitro ADME; settings: water or HeLa cell lysate, 24 h incubation at 37° C.
Description: To investigate the stability of the carbamate linker in cellular environment the compound 15, nitropiperonylmethyl fused via a carbamate moiety to guanosine, was studied in water and cell lysate. The cell lysate was produced by ultrasonication of HeLa cells (5*10^6 cells) in 400 μL 1×PBS buffer. The compound 15, NPOM-guanosine, suspended in water or cell lysate after 24 h incubation at 37° C. was analysed by HPLC-analysis as described above.
As can be taken from the FIG. 8, the compound 15 was stable under these conditions.

[3] = Irradiation of caged nucleosides, conversion estimated by HPLC; format: physicochemical; settings: 500 μM in water/acetone/acetonitrile; 405 nm 20-60 s or 365 nm 5-20 s; LED 3 W
Description: Conversions from caged compounds to uncaged compounds were estimated by integrating the peaks of a UV-spectrum that resulted from the HPLC analysis (Agilent infinity 1260).
When irradiating isolated N2-modified compounds, a final volume of 10 μL in double distilled water was irradiated using a LED (λmax=365 nm/405 nm/420 nm) and then analyzed by RP-HPLC.
A 500 μM solution of the compound 15, nitropiperonylmethyl fused via a carbamate moiety to guanosine (denoted “NPOM guanosine” or “caged guanosine”), in water/acetone/acetonitrile was irradiated in a 10 μL volume with either 405 nm for 20 s, 40 s or 60 s or with 365 nm for 5 s, 10 s or 20 s, respectively, using a LED power (input 3W and output 147 mW/cm^2). HPLC analysis was performed as described above.
Samples of the adenosine fused via a carbamate moiety to 7-(diethylamino)-4-(hydroxymethyl)-coumarin (DEACM) were irradiated with 450 nm. […] The peak at 21.1 min corresponds to the obtained compound and the peaks at 11.1 and 21.9 min correspond to the photo-cleavage products adenosine and DEACM-OH, respectively.

COc1cc(COC(=O)Nc2nc3c(c(=O)[nH]2)[n+](C)cn3[C@@H]2O[C@H](COP(=O)(O)OP(=O)(O)OP(=O)(O)OC[C@H]3O[C@@H](n4cnc5c(=O)[nH]c(N)nc54)C(O)C3O)C(O)C2O)c([N+](=O)[O-])cc1OC (stereo partly shown) [compound 22, P1-(N^2-(4,5-Dimethoxy-2-nitrobenzyl)oxycarbonyl-7-methylguanosin-5′-yl)-P3-guanosin-5′-yl triphosphate]
uncaging of the cap after irradiation (LC-MS) [1]: partially uncaged | translation in cells (luminescence) after irradiation (HeLa cells): marked increase of translation | translation in cells (luminescence) after irradiation (HEK293T cells): marked increase of translation | in vitro translation (luminescence) after irradiation (Reticulocyte Lysate; capped FLuc-mRNA with modified nucleotides m^5C and N^1methyl-pseudouridine): marked increase of translation | in vitro translation (luminescence) after irradiation (Reticulocyte Lysate; capped FLuc-mRNA, regular nucleotides): marked increase of translation

CC(OC(=O)Nc1nc2c(ncn2[C@@H]2O[C@H](CO)[C@@H](O)[C@H]2O)c(=O)[nH]1)c1cc2c(cc1[N+](=O)[O-])OCO2 (stereo partly shown) [compound 15, N^2-(1-(6-nitrobenzo[d][1,3]dioxol-5-yl)ethyl)oxycarbonylguanosine]
stability (HPLC) [2]: stable | conversion of caged guanosine to guanosine upon irradiation [3]: cleaved by irradiation and that guanosine is regained without side products
